Key:
[1] = test system: human striated muscle cells innervated with explants of spinal cord and spinal ganglia from rat embryos; experiment: nerve-muscle coculture model, inhibition of muscle fibre contractions; format: cell-based; settings: for contraction-inhibiting effect: test identical to Example 1
Protocol: Three extracts of Boswellia serrata were tested on a nerve-muscle coculture model which makes it possible to recreate a motor arc by innovating human striated muscle cells with explants of spinal cord and of spinal ganglia from rat embryos.
Human muscle cells derived from human muscle samples from a healthy donor are seeded in 15 mm-diameter wells (24-well culture dishes). After culturing for 10 days, these cells form a monolayer and fuse. At this stage, spinal cord explants from 13-day-old rat embryos, containing the spinal ganglion, are deposited onto the culture.
The first muscle fibre contractions are observed after coculturing for one week.
A muscle fibre having regular contractions (at least 60 contractions per minute) is then selected in three different culture wells and the number of contractions is counted over 30 seconds using image analysis software. The extracts tested, diluted in ethanol, are then incubated for 60 seconds in these wells, at the concentrations C1 and C2 of 0.005% and 0.01%. At the end of the incubation, the number of contractions is again counted over 30 seconds.
The percentage of inhibited contractions is then determined.

[2] = test system: calcium channels; experiment: model of calcium flux; format: cell-based; settings: compared with beta-boswellic acid, 3-O-acetylboswellic acid and 11-ketoboswellic acid
Protocol: The four pentacyclic triterpene acids contained, according to the literature, in extract of Boswellia serrata, namely beta-boswellic acid, 3-O-acetylboswellic acid, 11-ketoboswellic acid and 3-O-acetyl-11-ketoboswellic acid, were tested in a model of calcium flux in order to evaluate their capacity for inhibiting calcium channels and therefore their ability to relax lines and smooth out expression lines.

[3] = anti-wrinkle activity in vivo

Structure (SMILES) | contraction-inhibiting effect ([1]; 5 μM) [%] | contraction-inhibiting effect ([1]; 10 μM) [%] | relaxing effect (capacity for inhibiting calcium channels) [2] | muscle fibre contractions ([1]; earlier demonstration by the applicant) | anti-wrinkle activity [3]
CC(=O)O[C@@H]1CC[C@@]2(C)[C@@H](CC[C@]3(C)[C@@H]2C(=O)C=C2[C@@H]4[C@@H](C)[C@H](C)CC[C@]4(C)CC[C@]23C)[C@@]1(C)C(=O)O [3-O-acetyl-11-ketoboswellic acid] | 74.7 | 87 | clearly greater than that obtained for the other three acids tested | – | –
CN1C(=O)CN=C(c2ccccc2)c2cc(Cl)ccc21 [diazepam, reference compound] | – | – | – | inhibited muscle fibre contractions | demonstrated in vivo

Reference: US20040166178A1, “3-O-acetyl-11-ketoboswellic acid for relaxing the skin” (L'OREAL, priority 2003, published 2004)
